Measured values from PMC3395220 (Journal of Medicinal Chemistry, 2012).
Like-named read-outs stand apart in the source and are kept apart here.

How the values were obtained:
[1] = system: panel of 12 tumor cell lines implanted in mice; assay: NCI hollow fiber assay; type: in vivo; details: for hollow fiber assay total score: 12 tumor cell lines, daily ip for four days
A549/ATCCC [2] = details: read-out: Average GI50; A549, NSCL; ref historical data at the NCI; cited from earlier work
COLO 205 [3] = details: read-out: Average GI50; COLO205, colon; ref historical data at the NCI; cited from earlier work
SK-MEL-5 [4] = details: read-out: Average GI50; SK-MEL-5, melanoma; ref historical data at the NCI; cited from earlier work
IGROV1 [5] = details: read-out: Average GI50; IGROV 1, ovarian; ref historical data at the NCI; cited from earlier work
OVCAR-8 [6] = details: read-out: Average GI50; OVCAR-8, ovarian; ref historical data at the NCI; cited from earlier work
MDA-MB-231/ATCC [7] = details: read-out: Average GI50; MDA-MB-231, breast; ref historical data at the NCI; cited from earlier work
SF-295 [8] = details: read-out: Average GI50; SF-295, CNS; ref historical data at the NCI; cited from earlier work
U251 [9] = details: read-out: Average GI50; U251, CNS; ref historical data at the NCI; cited from earlier work
60 cancer cell lines = assay: cells; type: cell-based, human; details: Homo sapiens
CCRF-CEM = type: cell-based, human; details: 10^Δ2-x, relative to compound 2
HL-60(TB) = type: cell-based, human; details: 10^Δ2-x, relative to compound 2
K-562 = type: cell-based, human; details: 10^Δ2-x, relative to compound 2
MOLT-4 = type: cell-based, human; details: 10^Δ2-x, relative to compound 2
RPMI-8226 = type: cell-based, human; details: 10^Δ2-x, relative to compound 2
SR = type: cell-based, human; details: 10^Δ2-x, relative to compound 2
A549/ATCCC [10] = type: cell-based, human; details: 10^Δ2-x, relative to compound 2
EKVX = type: cell-based, human; details: 10^Δ2-x, relative to compound 2
HOP-62 = type: cell-based, human; details: 10^Δ2-x, relative to compound 2
HOP-92 = type: cell-based, human; details: 10^Δ2-x, relative to compound 2
NCI-H226 = type: cell-based, human; details: 10^Δ2-x, relative to compound 2
NCI-H23 = type: cell-based, human; details: 10^Δ2-x, relative to compound 2
NCI-H460 = type: cell-based, human; details: 10^Δ2-x, relative to compound 2
NCI-H522 = type: cell-based, human; details: 10^Δ2-x, relative to compound 2
COLO 205 [11] = type: cell-based, human; details: 10^Δ2-x, relative to compound 2
HCC-2998 = type: cell-based, human; details: 10^Δ2-x, relative to compound 2
HCT-116 = type: cell-based, human; details: 10^Δ2-x, relative to compound 2
HCT-15 = type: cell-based, human; details: 10^Δ2-x, relative to compound 2
HT29 = type: cell-based, human; details: 10^Δ2-x, relative to compound 2
KM12 = type: cell-based, human; details: 10^Δ2-x, relative to compound 2
SW-620 = type: cell-based, human; details: 10^Δ2-x, relative to compound 2
SF-268 = type: cell-based, human; details: 10^Δ2-x, relative to compound 2
SF-295 [12] = type: cell-based, human; details: 10^Δ2-x, relative to compound 2
SF-539 = type: cell-based, human; details: 10^Δ2-x, relative to compound 2
SNB-19 = type: cell-based, human; details: 10^Δ2-x, relative to compound 2
SNB-75 = type: cell-based, human; details: 10^Δ2-x, relative to compound 2
U251 [13] = type: cell-based, human; details: 10^Δ2-x, relative to compound 2
LOX IMVI = type: cell-based, human; details: 10^Δ2-x, relative to compound 2
M14 = type: cell-based, human; details: 10^Δ2-x, relative to compound 2
MDA-MB-435 = type: cell-based, human; details: 10^Δ2-x, relative to compound 2
SK-MEL2 = type: cell-based, human; details: 10^Δ2-x, relative to compound 2
SK-MEL28 = type: cell-based, human; details: 10^Δ2-x, relative to compound 2
SK-MEL-5 [14] = type: cell-based, human; details: 10^Δ2-x, relative to compound 2
UACC-257 = type: cell-based, human; details: 10^Δ2-x, relative to compound 2
UACC-62 = type: cell-based, human; details: 10^Δ2-x, relative to compound 2
IGROV1 [15] = type: cell-based, human; details: 10^Δ2-x, relative to compound 2
OVCAR-3 = type: cell-based, human; details: 10^Δ2-x, relative to compound 2
OVCAR-4 = type: cell-based, human; details: 10^Δ2-x, relative to compound 2
OVCAR-5 = type: cell-based, human; details: 10^Δ2-x, relative to compound 2
OVCAR-8 [16] = type: cell-based, human; details: 10^Δ2-x, relative to compound 2
NCI/ADR-RES = assay: cells; type: cell-based, human; details: 10^Δ2-x, relative to compound 2
786-0 = type: cell-based, human; details: 10^Δ2-x, relative to compound 2
A498 = type: cell-based, human; details: 10^Δ2-x, relative to compound 2
ACHN = type: cell-based, human; details: 10^Δ2-x, relative to compound 2
CAKI-1 = type: cell-based, human; details: 10^Δ2-x, relative to compound 2
RXF 393 = type: cell-based, human; details: 10^Δ2-x, relative to compound 2
SN12C = type: cell-based, human; details: 10^Δ2-x, relative to compound 2
TK-10 = type: cell-based, human; details: 10^Δ2-x, relative to compound 2
UO-31 = type: cell-based, human; details: 10^Δ2-x, relative to compound 2
PC-3 = type: cell-based, human; details: 10^Δ2-x, relative to compound 2
DU-145 = type: cell-based, human; details: 10^Δ2-x, relative to compound 2
MCF7 = type: cell-based, human; details: 10^Δ2-x, relative to compound 2
MDA-MB-231/ATCC [17] = type: cell-based, human; details: 10^Δ2-x, relative to compound 2
HS578T = type: cell-based, human; details: 10^Δ2-x, relative to compound 2
BT-549 = type: cell-based, human; details: 10^Δ2-x, relative to compound 2
T-47D = type: cell-based, human; details: 10^Δ2-x, relative to compound 2
MDA-MB-468 = type: cell-based, human; details: 10^Δ2-x, relative to compound 2
[18] = system: COLO-205 (colon), A549 (non-small cell lung) and BXCP3 (pancreas); assay: cells; type: cell-based; details: 72 h, read-out: average GI50 (50% of growth inhibition)
SK-MEL-2 melanoma cells = assay: Subcutaneous SK-MEL-2 melanoma xenograft; type: in vivo, athymic nu/nu mice; details: ip 8 mg/kg q4dx3, positive control

mithramycin [Compound 1]
hollow fiber assay total score [1]: 58/96
hollow fiber assay intraperitoneal score ([1]; intraperitoneal implants): 34/48
hollow fiber assay subcutaneous score ([1]; subcutaneous implants): 24/48
GI50 (A549/ATCCC [2]): 79 nM
GI50 (COLO 205 [3]): 63 nM
GI50 (SK-MEL-5 [4]): 63 nM
GI50 (IGROV1 [5]): 158 nM
GI50 (OVCAR-8 [6]): 79 nM
GI50 (MDA-MB-231/ATCC [7]): 166 nM
GI50 (SF-295 [8]): 79 nM
GI50 (U251 [9]): 63 nM

CO[C@H](C(=O)[C@@H](O)[C@@H](C)O)[C@@H]1Cc2cc3cc(O[C@H]4C[C@@H](O[C@H]5C[C@@H](O)[C@H](O)[C@@H](C)O5)[C@H](O)[C@@H](C)O4)c(C)c(O)c3c(O)c2C(=O)[C@H]1O[C@H]1C[C@@H](O[C@H]2C[C@@H](O[C@H]3C[C@H](O)[C@H](O)[C@@H](C)O3)[C@H](O)[C@@H](C)O2)[C@H](O)[C@@H](C)O1 [Compound 2, demycarosyl-3D-β-D-digitoxosyl-mithramycin, reference compound]
GI50 (60 cancer cell lines; read-out: Mean GI50): 51 nM

CO[C@H](C(=O)C(C)=O)[C@@H]1Cc2cc3cc(O[C@H]4C[C@@H](O[C@H]5C[C@@H](O)[C@H](O)[C@@H](C)O5)[C@H](O)[C@@H](C)O4)c(C)c(O)c3c(O)c2C(=O)[C@H]1O[C@H]1C[C@@H](O[C@H]2C[C@@H](O[C@H]3C[C@H](O)[C@H](O)[C@@H](C)O3)[C@H](O)[C@@H](C)O2)[C@H](O)[C@@H](C)O1 [Compound 11, demycarosyl-3D-β-D-digitoxosyl-mithramycin SDK]
activity improvement factor (CCRF-CEM): 1.16
activity improvement factor (HL-60(TB)): 3.09
activity improvement factor (K-562): 1.26
activity improvement factor (MOLT-4): 1.76
activity improvement factor (RPMI-8226): 0.75
activity improvement factor (SR): 1.22
activity improvement factor (A549/ATCCC [10]): 1.68
activity improvement factor (EKVX): 1.48
activity improvement factor (HOP-62): 3.39
activity improvement factor (HOP-92): 1.50
activity improvement factor (NCI-H226): 1.32
activity improvement factor (NCI-H23): 2.79
activity improvement factor (NCI-H460): 1.19
activity improvement factor (NCI-H522): 0.70
activity improvement factor (COLO 205 [11]): 1.60
activity improvement factor (HCC-2998): 4.79
activity improvement factor (HCT-116): 1.30
activity improvement factor (HCT-15): 5.82
activity improvement factor (HT29): 3.13
activity improvement factor (KM12): 2.32
activity improvement factor (SW-620): 1.22
activity improvement factor (SF-268): 1.66
activity improvement factor (SF-295 [12]): 2.32
activity improvement factor (SF-539): 1.58
activity improvement factor (SNB-19): 2.57
activity improvement factor (SNB-75): 2.75
activity improvement factor (U251 [13]): 1.35
activity improvement factor (LOX IMVI): 1.51
activity improvement factor (M14): 2.75
activity improvement factor (MDA-MB-435): 1.70
activity improvement factor (SK-MEL2): 2.24
activity improvement factor (SK-MEL28): 1.30
activity improvement factor (SK-MEL-5 [14]): 1.24
activity improvement factor (UACC-257): 1.17
activity improvement factor (UACC-62): 0.91
activity improvement factor (IGROV1 [15]): 3.24
activity improvement factor (OVCAR-3): 3.43
activity improvement factor (OVCAR-4): 2.88
activity improvement factor (OVCAR-5): 2.57
activity improvement factor (OVCAR-8 [16]): 2.11
activity improvement factor (NCI/ADR-RES): 4.68
activity improvement factor (786-0): 2.43
activity improvement factor (A498): 0.68
activity improvement factor (ACHN): 2.09
activity improvement factor (CAKI-1): 1.82
activity improvement factor (RXF 393): 1.91
activity improvement factor (SN12C): 1.45
activity improvement factor (TK-10): 1.50
activity improvement factor (UO-31): 1.30
activity improvement factor (PC-3): 4.37
activity improvement factor (DU-145): 3.63
activity improvement factor (MCF7): 0.65
activity improvement factor (MDA-MB-231/ATCC [17]): 2.00
activity improvement factor (HS578T): 1.76
activity improvement factor (BT-549): 1.26
activity improvement factor (T-47D): 1.32
activity improvement factor (MDA-MB-468): 2.14
GI50 (60 cancer cell lines; read-out: Mean GI50): 28 nM
GI50 (60 cancer cell lines; read-out: Mean log(GI50) (converted)): 28.2 nM
GI50 [18]: 300 to 1300 nM
hollow fiber assay total score [1]: 48/96

COc1cccc2c1C(=O)c1c(O)c3c(c(O)c1C2=O)C[C@@](O)(C(=O)CO)C[C@@H]3O[C@H]1C[C@H](N)[C@H](O)[C@H](C)O1 [doxorubicin, reference compound]
growth of SK-MEL-2 human melanoma xenografts (SK-MEL-2 melanoma cells): markedly delayed
